# Measured values taken from patent US9764029B2, “Tumor proliferation inhibitor containing ultrasound-sensitive substance and method for inhibiting tumor proliferation by using tumor proliferation inhibitor and low-intensity pulsed ultrasound waves” (Fukuoka University, priority 2010, dated 2017).
# Columns and labels:
# [1] = system: human gastric cancer cell line MKN-74; test: Ultrasonic treatment of SCID mice carrying subcutaneous MKN-74 cancer (Example 1); assay type: in vivo; conditions: DEG 5 μM + SONAZOID 16 μL in 300 μL saline, intratumoral; single treatment with low-intensity pulsed ultrasound 2 W/cm^2, 1 MHz, 50% duty cycle, 10 minutes; three weeks after treatment
# Procedure: SCID mice as cancer-carrying animals were inoculated subcutaneously with human gastric cancer cell line MKN-74 which was in turn grown to a diameter of the cancer size of approximately 20 mm and then subjected to treatment by ultrasound waves. The ultrasonic treatment was carried out using the porphyrin derivative, [7,12-bis(1-(2-(2-hydroxyethoxy)ethoxy)ethyl)-3,8,13,17-tetramethylporphyrin-2,18-dipropionato]manganese (DEG), as the ultrasound-sensitive substance and an ultrasound contrast agent containing lipid stabilized perfluorobutane microbubbles in an aqueous solution (SONAZOID™) as the acoustic cavitation phenomenon-enhancing substance by irradiating the mice with low-intensity pulsed ultrasound waves of 2 W/cm^2 and 1 MHz under a condition of 50% duty cycle for 10 minutes. The ultrasonic treatment was performed by suspending 5 μM of the ultrasound sensitive substance and 16 μL of the acoustic cavitation phenomenon-enhancing substance in 300 μL of saline and irradiating the mice with the ultrasound waves immediately after intratumoral administration of the resulting suspension. The states of development of the cancer were observed immediately after ultrasonic treatment, one week and three weeks thereafter.
# [2] = system: human gastric cancer cell line MKN-74; test: Inhibitory effect on cancer at a specific site (subcutaneous tumor) of mice with MKN-74 tumor (Example 2); assay type: in vivo; conditions: DEG 5 μM in combination with Szd 16 μL in 200 μL PBS, intratumoral; ultrasound 1 W/cm^2, 1 MHz, 50% duty cycle, 10 minutes, three times on alternate days
# Procedure: Mice were inoculated subcutaneously with ca. 5×10^6 cells of human gastric cancer cell line MKN-74 and a PBS suspension (200 μL) composed of the ultrasound-sensitive substance (DEG; 5 μM) and the acoustic cavitation phenomenon-enhancing substance (Szd; 16 μL) was administered intratumorally, followed by irradiating the mice with ultrasound waves of 1 W/cm^2 and 1 MHZ under a condition of 50% duty cycle for 10 minutes using Sonitron 100. The ultrasound waves were irradiated three times on alternate days. The results of the cancer sizes are shown by arrow mark (↑) in FIG. 4.
substance,measurement,setting,value
"7,12-bis(1-(2-(2-hydroxyethoxy)ethoxy)ethyl)-3,8,13,17-tetra-methylporphyrin-2,18-dipropionato]manganese [DEG]",state of development of the cancer (tumor size),[1],dramatic regression of the cancer
same,"antitumor effect, one remaining case of three",[2],significant antitumor effect
same,"antitumor effect, two cases out of three",[2],remarkable effects
